The values that follow come from patent US9499493B2, “2,4-pyrimidinediamine compounds and their uses” (Rigel Pharmaceuticals, Inc., priority 2002, dated 2016).

Each structure is given as a SMILES string.

One data set concerns BMMC cells. Nature of the data set: Phosphorylation of proteins downstream of Syk kinase in the IgE receptor cascade, activated BMMC cells. Conditions: varying concentrations, FIG. 7. It is filed as cell-based, mouse.
The test system of data set [1] is bone marrow derived mast cells (BMMC). Nature of the data set: BMMC high cell density IgE activation: histamine. The data set is classed as cell-based, mouse. Conditions: anti-IgE, second part of TABLE 1. Put shortly:
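IgE-sensitized BMMC (1-3×10^6 cells/ml, MT buffer) were pretreated with compound for 1 h at 37 °C in 0.5% DMSO, then stimulated with DNP-BSA (6× stimulus, 60 ng/ml) for 1 h. Supernatant was taken, and cells were re-incubated 4–5 h in WEI-conditioned medium with compound. Mediators were quantified by ELISA.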

The nature of data set [2]: Pilot dose finding studies (oral). Particulars: in vivo.
Data set [3] in a line: in vitro chromosomal aberration assay.
Data set [4] concerns IgE-induced degranulation of tissue mast cells. Nature of the data set: Mouse model of passive cutaneous anaphylaxis (PCA). The data set is classed as in vivo. Particulars: for % Inhibition (PCA) / Plasma level: PO, 1.5% Avicel/water, pretreatment 15 min. The method, then: This model provides a direct measure of IgE-induced degranulation of tissue mast cells. In this model, IgE primed animals are exposed to an allergen challenge, and the change in permeability of dermal vasculature that results from histamine release from mast cells is measured by change in the amount of dye leakage into surrounding tissue. Inhibition of mediator release by compounds that modulate mast cell degranulation is easily measured by extracting the dye from the tissue.
In the PCA assay mice are passively sensitized by intradermal injection with anti-dinitrophenol (DNP) IgE antibodies (Day −1). At predetermined times animals are treated with the test agent (Day 0). The modulatory effect of the agent on cutaneous mast cell degranulation is measured following intravenous injection of DNP conjugated to human serum albumin (HSA-DNP), together with Evans blue dye. The resulting cross-linking of the IgE receptor and subsequent mast cell degranulation-induced increase in vascular permeability is determined by measuring the amount of dye extravasation into the tissue. Dye is extracted from the tissue by formamide, and the absorbance of this extract is read at 620 nm.

Data set [5] in a line: Mouse model of allergic asthma (ovalbumin). Particulars: less stringent protocol; subcutaneously 70 mg/kg in 67% PEG400/33% citrate buffer, 30 minutes prior to challenge. The data set is classed as in vivo. The text has this: Mice are sensitized to ovalbumin (chicken protein) in the presence of an adjuvant (Alum) by the intraperitoneal route on day 0 and day 7. One week later, mice are challenged intranasally with ovalbumin on Days 14, 15 and 16 (more stringent model) or on Day 14 (less stringent model). This sensitization and challenge regimen leads to airway hyperresponsiveness and inflammation in the lungs, which are two dominant characteristics of human allergic asthma. In the mouse model, the in vivo airway responses are measured using a whole body plethysmograph which determines the PENH (enhanced Pause, Buxco Electronics). The PENH is a dimensionless value comprised of the peak inspiratory flow (PIF), peak expiratory flow (PEF), time of inspiration, time of expiration and relaxation time, and is considered a validated parameter of airway responsiveness. Responses to allergen challenge (OVA) are compared with animals challenged with saline only. Twenty-four hours after challenge, mice are exposed to increasing doses of methacholine (muscarinic receptor agonist) which results in smooth muscle contraction. […] In addition, a cellular infiltrate in the airway is observed in ovalbumin challenged mice when compared with the saline challenged mice. This cellular infiltrate is mainly characterized by eosinophils, but a smaller influx of neutrophils and mononuclear cells is also present.
The use of this model for the evaluation of small molecule inhibitors of mast cell degranulation has been validated is several ways. First, using mast cell deficient mice (W/W^v) it has been shown that the ovalbumin-induced responses are dependent upon the presence of mast cells.

The subject of data set [6] is cultured human mast cells (CHMC). Put plainly: CHMC high cell density IgE activation: hexos (hexosaminidase) release. The data set is classed as cell-based. Conditions: anti-IgE activation. The procedure, abridged:
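IgE-sensitized CHMC at 1-2×10^6 cells/ml were pretreated with compound for 1 h at 37 °C (0.5% DMSO final), then anti-IgE-stimulated for 1 h and supernatant collected. Hexosaminidase was read with a fluorogenic substrate. Pellets were re-incubated 7 h with compound before supernatant ELISAs.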

With `CNC(=O)COc1cccc(Nc2ncc(F)c(Nc3ccc4c(c3)NCCO4)n2)c1` [R921219, N4-(1,4-Benzoxazin-6-yl)-5-fluoro-N2-[3-(N-methylamino)carbonylmethyleneoxyphenyl]-2,4-pyrimidinediamine], the “phosphorylation of various proteins downstream of Syk kinase” value in the data set on BMMC cells was “inhibit”. In addition, inhibition in data set [1] was half-maximal at 58 nM (IC50). The “multiple (7-day) doses not tolerated” value in data set [2] is listed as at least 200 mg/kg/day. The clastogenic potential result in data set [3] is “not found to possess clastogenic potential”. For the same molecule, the “% Inhibition (PCA)” value turned out to be 25% in data set [4] (30 mg/kg), 68% in data set [4] (100 mg/kg) and 92% in data set [4] (300 mg/kg). For the same molecule, the Plasma level in data set [4] (30 mg/kg) stood at 400 ng/mL; in data set [4] (100 mg/kg), 4000 ng/mL; in data set [4] (300 mg/kg), 11000 ng/mL. In addition, the “circulating exposure levels at which active” value in data set [4] (mouse, in vivo) is given as “approximately 10 μg/ml”. In addition, the “FcεR-mediated vascular leakage with increasing doses (in words)” value in data set [4] (solution (67% PEG/33% citrate buffer) or aqueous suspension (1.5% Avicel)) was “dose-dependent inhibition”. Further, the “ovalbumin-induced airway hyperresponsiveness and cellular influx” value in data set [5] is reported as “completely blocked”.
Turning to `CNC(=O)COc1cccc(Nc2ncc(F)c(Nc3cccc(O)c3)n2)c1` [R926508, 5-Fluoro-N4-(3-hydroxyphenyl)-N2-[3-(N-methylamino)carbonylmethyleneoxyphenyl]-2,4-pyrimidinediamine], it took 170 nM to reach half-maximal inhibition in data set [6] (IC50).
